Measured values published in ChEMBL document CHEMBL1201862, “PubChem BioAssay data set” (2004).
The source made the active and inactive calls.

Experiments:
[1] = cells; format: functional, cell-based
[2] = molecular target: T1, Trace amine-associated receptor 1 (Homo sapiens, UniProt Q96RJ0); assay: Fluorescence-based cell-based high throughput dose response assay to identify agonists of the human trace amine associated receptor 1 (TAAR1).; format: functional
T1 sequence (Q96RJ0 whole entry): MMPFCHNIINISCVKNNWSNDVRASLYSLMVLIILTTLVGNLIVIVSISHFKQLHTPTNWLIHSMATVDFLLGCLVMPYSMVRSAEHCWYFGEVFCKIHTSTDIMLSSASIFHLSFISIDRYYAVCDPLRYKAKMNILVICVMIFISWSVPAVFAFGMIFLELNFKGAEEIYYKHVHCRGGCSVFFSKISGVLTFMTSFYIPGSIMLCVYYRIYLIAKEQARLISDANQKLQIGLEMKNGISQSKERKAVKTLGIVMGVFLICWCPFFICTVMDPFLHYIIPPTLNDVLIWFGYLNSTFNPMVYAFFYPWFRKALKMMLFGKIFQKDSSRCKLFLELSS

[3] = molecular target: T1, Trace amine-associated receptor 1; assay: Counterscreen for agonists of the human trace amine associated receptor 1 (hTAAR1): Fluorescence-based cell-based high throughput dose response assay to identify hTAAR1 agonist that also desensitize TAAR1 receptor response.; format: functional
[4] = cells; format: functional, cell-based; remark: listed apart in the source
[5] = molecular target: Peroxisome proliferator-activated receptor gamma/Nuclear receptor coactivator 1 (Homo sapiens, UniProt P37231); assay: (§1) TR-FRET dose response biochemical High Throughput Screening assay for agonists of the steroid receptor coactivator 1 (SRC-1) recruitment by the peroxisome proliferator-activated receptor gamma (PPAR gamma): non-selective agonists. [Related pubchem assays (depositor defined):AID1300, AID1808, AID504735, AID631]; format: protein assay
[6] = molecular target: Peroxisome proliferator-activated receptor gamma/Nuclear receptor coactivator 3 (Homo sapiens, UniProt P37231); assay: as §1, with “3 (SRC-3)” for “1 (SRC-1)”, “assays: 1301 (Confirmation screen.), 1048 (Primary screen.)]” for “assays (depositor defined):AID1300, AID1808, AID504735, AID631]”; format: functional
[7] = molecular target: Peroxisome proliferator-activated receptor gamma/Nuclear receptor coactivator 2 (Homo sapiens, UniProt P37231); assay: TR-FRET dose response biochemical High Throughput Screening assay for agonists of the steroid receptor coactivator 2 (SRC-2) recruitment by the peroxisome proliferator-activated receptor gamma (PPAR gamma): non-selective agonists. [Related pubchem assays: 1297, 1032 ]; format: functional
[8] = molecular target: T2, fMet-Leu-Phe receptor (Homo sapiens, UniProt P21462); assay: FPR ligands, dose response (AID 519); format: functional
T2 sequence (P21462 whole entry): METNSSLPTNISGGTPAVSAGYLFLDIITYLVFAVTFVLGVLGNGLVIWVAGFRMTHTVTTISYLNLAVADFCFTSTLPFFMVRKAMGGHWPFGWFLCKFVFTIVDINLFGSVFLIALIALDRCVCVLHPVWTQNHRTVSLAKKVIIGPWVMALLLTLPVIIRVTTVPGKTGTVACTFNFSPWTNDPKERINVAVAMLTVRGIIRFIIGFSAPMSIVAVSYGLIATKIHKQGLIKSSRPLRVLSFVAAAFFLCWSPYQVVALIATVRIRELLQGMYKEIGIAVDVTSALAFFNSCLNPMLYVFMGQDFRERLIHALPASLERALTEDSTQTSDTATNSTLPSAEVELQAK

[9] = molecular target: T3, Galanin receptor type 3 (Homo sapiens, UniProt O60755); assay: Fluorescence-based cell-based primary high throughput dose response assay to identify antagonists of the Galanin Receptor 3 (GalR3).; format: functional
T3 sequence (O60755 whole entry): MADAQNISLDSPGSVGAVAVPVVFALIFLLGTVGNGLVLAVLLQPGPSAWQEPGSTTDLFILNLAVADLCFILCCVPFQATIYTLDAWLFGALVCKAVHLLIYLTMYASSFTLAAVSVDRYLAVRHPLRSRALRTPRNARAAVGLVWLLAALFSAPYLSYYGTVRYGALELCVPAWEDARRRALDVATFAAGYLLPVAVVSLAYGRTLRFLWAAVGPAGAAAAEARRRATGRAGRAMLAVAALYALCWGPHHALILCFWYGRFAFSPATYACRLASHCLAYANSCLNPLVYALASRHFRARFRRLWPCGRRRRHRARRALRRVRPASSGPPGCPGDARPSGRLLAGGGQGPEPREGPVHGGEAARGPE

[10] = cells; format: functional, cell-based; details: HEK-CNG
[11] = ADAM10 inhibitors, peptide cleavage, dose response, biochemical, QFRET (AID 743254);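 further: ADAM10 enzyme with the DM2 quenched FRET peptide as substrate; EDANS fluorescence gain as the protease cuts the substrate; inhibitor potency against ADAM10 proteolytic activity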
[12] = molecular target: Disintegrin and metalloproteinase domain-containing protein 17 (Homo sapiens, UniProt P78536); assay: ADAM17 protease inhibitors, dose response, counter-screen for ADAM10 exosite inhibitor project, biochemical, quenched FRET substrate (AID 743253)
[13] = molecular target: Nonstructural protein 1 (Influenza A virus, UniProt Q194T2); format: functional, Influenza A virus (A/California/07/2009(H1N1))
[14] = molecular target: T4, Rac GTPase-activating protein 1 (Homo sapiens, UniProt Q9H0H5); assay: MgcRacGAP GTPase-activating activity inhibitors, confirmation, biochemical, ADP Hunter fluorescence, primary and confirmatory (AID 624330); format: functional
T4 sequence (Q9H0H5 whole entry): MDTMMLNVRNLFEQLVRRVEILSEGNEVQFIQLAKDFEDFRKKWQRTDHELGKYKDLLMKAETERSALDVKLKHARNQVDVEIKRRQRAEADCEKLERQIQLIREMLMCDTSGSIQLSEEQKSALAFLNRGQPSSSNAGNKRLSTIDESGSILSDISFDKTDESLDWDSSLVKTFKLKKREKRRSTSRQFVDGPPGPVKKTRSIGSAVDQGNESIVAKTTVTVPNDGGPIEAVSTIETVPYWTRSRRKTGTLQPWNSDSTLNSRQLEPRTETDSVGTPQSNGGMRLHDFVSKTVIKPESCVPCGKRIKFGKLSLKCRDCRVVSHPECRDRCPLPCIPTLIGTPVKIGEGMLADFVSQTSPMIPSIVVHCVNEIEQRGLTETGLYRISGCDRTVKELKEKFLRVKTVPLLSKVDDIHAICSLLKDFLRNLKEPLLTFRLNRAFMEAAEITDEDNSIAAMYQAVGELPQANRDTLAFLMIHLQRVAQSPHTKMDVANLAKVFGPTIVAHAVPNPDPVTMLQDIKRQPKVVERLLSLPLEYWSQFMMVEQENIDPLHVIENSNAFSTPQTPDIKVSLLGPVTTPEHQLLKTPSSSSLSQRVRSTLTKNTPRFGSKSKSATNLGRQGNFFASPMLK

[15] = human group III sPLA2 inhibitors, dose response, biochemical, QFRET, IC50 (AID 743457);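 further: green fluorescence rise as the enzyme cleaves BODIPY PC-A2 in liposomes; potency for inhibition of the enzyme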
[16] = molecular target: T5, Replicative DNA helicase DnaB (Mycobacterium tuberculosis, UniProt P9WMR3); assay: DnaB intein splicing inhibitors, dose response, biochemical, cell-free fluorescence (AID 449749); format: functional
T5 sequence (P9WMR3 whole entry): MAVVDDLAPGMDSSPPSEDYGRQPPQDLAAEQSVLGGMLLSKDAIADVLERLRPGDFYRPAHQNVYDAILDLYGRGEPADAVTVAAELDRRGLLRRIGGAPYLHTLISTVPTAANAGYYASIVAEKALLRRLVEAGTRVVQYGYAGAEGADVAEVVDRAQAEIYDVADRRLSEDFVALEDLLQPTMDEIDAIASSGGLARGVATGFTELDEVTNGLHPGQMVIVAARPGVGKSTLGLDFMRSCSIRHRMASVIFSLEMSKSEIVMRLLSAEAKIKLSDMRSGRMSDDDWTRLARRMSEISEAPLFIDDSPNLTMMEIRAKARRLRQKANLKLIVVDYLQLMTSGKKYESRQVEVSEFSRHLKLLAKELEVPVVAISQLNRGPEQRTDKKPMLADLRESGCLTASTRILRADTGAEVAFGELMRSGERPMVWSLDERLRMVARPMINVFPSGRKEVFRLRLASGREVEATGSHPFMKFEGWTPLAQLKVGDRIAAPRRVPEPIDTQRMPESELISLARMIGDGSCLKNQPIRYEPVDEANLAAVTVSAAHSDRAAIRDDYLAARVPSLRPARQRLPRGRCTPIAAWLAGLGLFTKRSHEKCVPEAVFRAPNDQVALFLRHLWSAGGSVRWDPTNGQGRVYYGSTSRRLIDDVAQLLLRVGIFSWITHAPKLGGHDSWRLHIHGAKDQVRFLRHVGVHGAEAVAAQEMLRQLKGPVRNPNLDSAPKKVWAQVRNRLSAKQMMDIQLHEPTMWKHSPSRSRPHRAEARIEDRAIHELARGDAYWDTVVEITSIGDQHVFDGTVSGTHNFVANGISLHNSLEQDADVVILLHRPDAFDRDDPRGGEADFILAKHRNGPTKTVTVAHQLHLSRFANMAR

[17] = molecular target: T6, Protein RecA (Mycobacterium tuberculosis, UniProt P9WHJ3); assay: Fluorescence Cell-Free Homogeneous Dose Retest to Identify Inhibitors of RecA-Intein Splicing Activity. [Related pubchem assays (depositor defined):AID2097, AID2223, AID489010, AID492950]; format: functional
T6 sequence (P9WHJ3 whole entry): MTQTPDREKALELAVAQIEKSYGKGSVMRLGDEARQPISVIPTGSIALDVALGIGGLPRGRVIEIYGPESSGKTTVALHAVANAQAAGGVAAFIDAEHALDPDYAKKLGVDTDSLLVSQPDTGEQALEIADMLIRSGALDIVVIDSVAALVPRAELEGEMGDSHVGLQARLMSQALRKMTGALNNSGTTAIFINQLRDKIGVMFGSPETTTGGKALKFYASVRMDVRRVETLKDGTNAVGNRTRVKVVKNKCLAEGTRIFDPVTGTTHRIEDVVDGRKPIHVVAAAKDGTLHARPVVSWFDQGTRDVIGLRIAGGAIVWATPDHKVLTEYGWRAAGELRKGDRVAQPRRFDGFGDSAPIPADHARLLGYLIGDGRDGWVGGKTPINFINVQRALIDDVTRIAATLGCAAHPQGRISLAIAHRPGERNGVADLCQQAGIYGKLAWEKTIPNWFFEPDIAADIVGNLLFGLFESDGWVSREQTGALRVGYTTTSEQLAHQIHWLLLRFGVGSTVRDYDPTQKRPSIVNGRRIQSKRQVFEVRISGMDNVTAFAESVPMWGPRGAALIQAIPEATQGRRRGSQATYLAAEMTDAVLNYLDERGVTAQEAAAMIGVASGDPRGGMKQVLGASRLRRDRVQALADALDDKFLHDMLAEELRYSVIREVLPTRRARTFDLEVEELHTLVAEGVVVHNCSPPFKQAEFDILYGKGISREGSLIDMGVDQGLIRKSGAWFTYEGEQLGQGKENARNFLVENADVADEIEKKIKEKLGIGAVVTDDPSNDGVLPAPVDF

Chain of Disintegrin and metalloproteinase domain-containing protein 17 (P78536 whole entry, the tested form may be a part): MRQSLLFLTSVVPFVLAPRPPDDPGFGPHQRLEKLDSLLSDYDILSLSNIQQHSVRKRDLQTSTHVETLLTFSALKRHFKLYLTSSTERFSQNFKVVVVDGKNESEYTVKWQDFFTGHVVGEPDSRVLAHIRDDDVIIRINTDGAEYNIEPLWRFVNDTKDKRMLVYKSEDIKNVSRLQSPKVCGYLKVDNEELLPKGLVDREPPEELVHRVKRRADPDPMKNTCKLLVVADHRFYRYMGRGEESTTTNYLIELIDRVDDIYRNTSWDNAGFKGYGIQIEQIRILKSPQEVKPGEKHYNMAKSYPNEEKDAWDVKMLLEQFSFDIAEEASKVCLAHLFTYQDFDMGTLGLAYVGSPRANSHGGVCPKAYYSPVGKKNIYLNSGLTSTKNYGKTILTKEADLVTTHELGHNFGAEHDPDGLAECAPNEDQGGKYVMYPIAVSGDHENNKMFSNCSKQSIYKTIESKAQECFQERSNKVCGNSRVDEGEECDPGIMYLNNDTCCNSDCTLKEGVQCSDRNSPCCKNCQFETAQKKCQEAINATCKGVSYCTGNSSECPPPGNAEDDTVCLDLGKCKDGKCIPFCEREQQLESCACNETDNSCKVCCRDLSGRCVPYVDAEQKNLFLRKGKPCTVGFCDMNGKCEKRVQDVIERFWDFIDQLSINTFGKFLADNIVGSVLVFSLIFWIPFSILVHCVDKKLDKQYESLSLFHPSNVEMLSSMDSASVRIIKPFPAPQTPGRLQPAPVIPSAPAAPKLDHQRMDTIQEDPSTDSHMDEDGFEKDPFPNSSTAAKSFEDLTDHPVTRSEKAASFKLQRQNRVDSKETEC
Chain of Peroxisome proliferator-activated receptor gamma/Nuclear receptor coactivator 1 (P37231 whole entry): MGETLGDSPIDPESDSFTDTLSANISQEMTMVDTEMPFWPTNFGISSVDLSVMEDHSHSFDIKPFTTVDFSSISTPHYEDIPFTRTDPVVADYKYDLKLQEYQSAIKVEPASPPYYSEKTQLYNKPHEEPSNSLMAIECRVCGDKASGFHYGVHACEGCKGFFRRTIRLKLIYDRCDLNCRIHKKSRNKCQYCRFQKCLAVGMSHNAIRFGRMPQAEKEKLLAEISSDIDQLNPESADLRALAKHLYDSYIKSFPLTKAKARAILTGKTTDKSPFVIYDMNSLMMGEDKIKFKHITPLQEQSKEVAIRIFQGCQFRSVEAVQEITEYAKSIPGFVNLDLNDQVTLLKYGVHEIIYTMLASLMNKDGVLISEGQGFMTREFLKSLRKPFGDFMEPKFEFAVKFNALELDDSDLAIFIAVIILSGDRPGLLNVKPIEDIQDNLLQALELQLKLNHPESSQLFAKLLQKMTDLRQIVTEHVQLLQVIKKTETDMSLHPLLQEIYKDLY
Chain of Peroxisome proliferator-activated receptor gamma/Nuclear receptor coactivator 1 (Q15788 whole entry, further chain): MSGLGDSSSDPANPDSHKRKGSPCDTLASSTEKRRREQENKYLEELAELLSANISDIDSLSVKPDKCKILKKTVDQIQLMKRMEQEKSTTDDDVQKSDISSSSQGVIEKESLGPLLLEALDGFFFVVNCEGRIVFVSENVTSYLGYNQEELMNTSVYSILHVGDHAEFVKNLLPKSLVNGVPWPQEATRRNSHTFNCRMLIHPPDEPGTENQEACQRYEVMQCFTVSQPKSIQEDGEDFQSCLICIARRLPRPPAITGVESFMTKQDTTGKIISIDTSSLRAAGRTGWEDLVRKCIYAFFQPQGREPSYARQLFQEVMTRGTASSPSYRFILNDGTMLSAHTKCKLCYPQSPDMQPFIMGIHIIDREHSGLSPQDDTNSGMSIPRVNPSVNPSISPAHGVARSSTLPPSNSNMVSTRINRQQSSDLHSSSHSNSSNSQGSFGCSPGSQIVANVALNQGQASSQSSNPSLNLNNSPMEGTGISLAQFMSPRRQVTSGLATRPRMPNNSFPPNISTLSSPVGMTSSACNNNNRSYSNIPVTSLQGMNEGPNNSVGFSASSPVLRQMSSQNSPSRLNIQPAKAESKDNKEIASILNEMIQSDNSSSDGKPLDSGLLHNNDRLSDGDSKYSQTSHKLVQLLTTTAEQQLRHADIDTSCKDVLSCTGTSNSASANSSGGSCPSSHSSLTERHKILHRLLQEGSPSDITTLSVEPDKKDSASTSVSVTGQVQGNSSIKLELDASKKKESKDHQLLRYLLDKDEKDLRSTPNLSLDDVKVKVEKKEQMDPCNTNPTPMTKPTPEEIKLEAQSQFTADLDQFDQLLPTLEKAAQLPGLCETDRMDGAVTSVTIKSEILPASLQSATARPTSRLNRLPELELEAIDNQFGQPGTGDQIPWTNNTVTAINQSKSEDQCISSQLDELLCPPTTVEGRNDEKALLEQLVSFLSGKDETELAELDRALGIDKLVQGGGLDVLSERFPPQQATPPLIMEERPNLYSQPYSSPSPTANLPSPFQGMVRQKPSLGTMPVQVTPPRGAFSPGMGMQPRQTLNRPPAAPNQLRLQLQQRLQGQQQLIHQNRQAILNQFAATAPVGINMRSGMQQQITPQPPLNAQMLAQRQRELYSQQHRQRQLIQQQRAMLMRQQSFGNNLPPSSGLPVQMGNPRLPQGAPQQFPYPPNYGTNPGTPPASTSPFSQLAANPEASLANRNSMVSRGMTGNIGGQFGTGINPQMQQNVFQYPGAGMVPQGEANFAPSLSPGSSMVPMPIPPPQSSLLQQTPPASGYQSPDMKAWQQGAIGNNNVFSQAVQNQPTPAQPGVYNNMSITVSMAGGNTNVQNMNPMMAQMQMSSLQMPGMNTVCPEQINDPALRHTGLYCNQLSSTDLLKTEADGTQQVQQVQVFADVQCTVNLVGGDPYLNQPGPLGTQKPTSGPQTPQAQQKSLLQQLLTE
Chain of Peroxisome proliferator-activated receptor gamma/Nuclear receptor coactivator 3 (P37231 whole entry): as the sequence (P37231 whole entry) above
Chain of Peroxisome proliferator-activated receptor gamma/Nuclear receptor coactivator 3 (Q9Y6Q9 whole entry, further chain): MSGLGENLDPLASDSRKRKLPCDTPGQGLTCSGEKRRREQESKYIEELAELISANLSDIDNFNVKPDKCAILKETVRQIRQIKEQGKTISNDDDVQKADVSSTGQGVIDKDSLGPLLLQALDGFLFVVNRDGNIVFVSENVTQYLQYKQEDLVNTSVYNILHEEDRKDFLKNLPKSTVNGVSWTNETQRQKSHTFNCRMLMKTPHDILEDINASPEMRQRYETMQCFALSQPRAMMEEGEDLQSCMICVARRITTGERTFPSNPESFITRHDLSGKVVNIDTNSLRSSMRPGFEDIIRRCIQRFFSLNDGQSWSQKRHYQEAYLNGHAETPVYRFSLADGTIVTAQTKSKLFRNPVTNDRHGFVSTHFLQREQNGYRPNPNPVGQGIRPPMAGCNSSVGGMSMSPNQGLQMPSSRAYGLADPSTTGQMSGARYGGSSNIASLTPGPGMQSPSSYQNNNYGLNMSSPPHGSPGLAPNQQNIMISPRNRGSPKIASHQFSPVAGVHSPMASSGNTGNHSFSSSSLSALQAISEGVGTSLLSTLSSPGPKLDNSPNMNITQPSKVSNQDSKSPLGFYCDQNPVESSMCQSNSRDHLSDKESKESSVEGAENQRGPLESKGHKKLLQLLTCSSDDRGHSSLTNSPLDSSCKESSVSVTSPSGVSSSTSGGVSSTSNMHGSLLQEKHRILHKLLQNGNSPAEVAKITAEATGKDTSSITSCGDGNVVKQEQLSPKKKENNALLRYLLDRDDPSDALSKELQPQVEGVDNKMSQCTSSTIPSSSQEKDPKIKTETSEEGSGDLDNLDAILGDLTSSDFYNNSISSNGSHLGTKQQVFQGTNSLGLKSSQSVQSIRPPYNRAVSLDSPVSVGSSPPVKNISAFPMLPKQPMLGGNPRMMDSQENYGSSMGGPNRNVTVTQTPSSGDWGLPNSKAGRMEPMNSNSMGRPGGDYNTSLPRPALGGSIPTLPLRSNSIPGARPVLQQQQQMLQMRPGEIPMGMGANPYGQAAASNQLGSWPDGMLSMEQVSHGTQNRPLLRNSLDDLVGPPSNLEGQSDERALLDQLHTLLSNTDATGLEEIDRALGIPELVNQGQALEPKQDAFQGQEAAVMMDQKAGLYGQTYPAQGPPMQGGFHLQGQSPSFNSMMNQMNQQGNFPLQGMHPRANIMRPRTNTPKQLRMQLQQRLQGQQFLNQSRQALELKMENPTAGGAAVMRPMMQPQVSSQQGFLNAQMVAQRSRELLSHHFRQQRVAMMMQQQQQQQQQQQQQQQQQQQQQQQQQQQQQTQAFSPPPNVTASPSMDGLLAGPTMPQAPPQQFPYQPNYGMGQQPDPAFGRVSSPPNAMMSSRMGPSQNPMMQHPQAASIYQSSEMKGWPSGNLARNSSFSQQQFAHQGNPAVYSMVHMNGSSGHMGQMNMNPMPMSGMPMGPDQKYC
Chain of Nonstructural protein 1 (Q194T2 whole entry): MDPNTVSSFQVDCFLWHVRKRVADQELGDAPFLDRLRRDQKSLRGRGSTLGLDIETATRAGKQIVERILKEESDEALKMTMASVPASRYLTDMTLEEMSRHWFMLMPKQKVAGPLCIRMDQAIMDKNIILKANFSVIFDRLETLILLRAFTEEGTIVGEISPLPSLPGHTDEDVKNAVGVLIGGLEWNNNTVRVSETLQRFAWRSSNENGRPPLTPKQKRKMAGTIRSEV

CN(CCc1ccccc1)c1cc2c(c3c1ccn3C)C1CCC2O1 (stereo not drawn)
IC50 [1]: > 29.9 µM (inactive) | EC50 [2]: 1.18 µM (active) | IC50 [3]: 5.22 µM (active) | EC50 [4]: > 29.9 µM (inactive)

CC/C(NCCc1ccccc1)=C1/C(=O)NC(=O)N(C2CCCCC2)C1=O
IC50 [1]: > 29.9 µM (inactive) | EC50 [2]: 2.87 µM (active) | IC50 [3]: 6.23 µM (active) | EC50 [4]: > 29.9 µM (inactive)

COc1cccc(C2C(C(=O)c3ccc(OC)c(OC)c3)=C(O)C(=O)N2c2cc(C)on2)c1 (stereo not drawn)
EC50 [5]: > 79.4 µM (inactive) | EC50 [6]: > 79.4 µM (not active) | EC50 [7]: > 79.4 µM (not active) | Ki [8]: > 66.7 µM (inactive)

COCCn1c(SCCCC(=O)c2ccc(Br)cc2)nnc1-c1ccncc1
IC50 [9]: 5.94 µM (active) | EC50 [10]: > 29.9 µM (inactive)

N#Cc1c(NC(=O)CCn2cnc3ccccc3c2=O)oc(-c2ccccc2)c1-c1ccccc1
IC50 [11]: > 69.5 µM (inactive) | IC50 [12]: > 69.5 µM (inactive)

COc1cc(OC)c(C2Nc3cccc4cccc(c34)N2)c(OC)c1
IC50 [13]: > 100 µM (active) | IC50 [14]: 65.2 µM (active) | IC50 [15]: 83.1 µM (inactive)

Cc1onc(-c2ccccc2)c1-c1nc2ccccc2c(=O)o1
AC50 [16]: 1.31 µM (active) | EC50 [17]: 1.11 µM (active) | IC50 [9]: > 29.9 µM (inactive) | EC50 [10]: > 29.9 µM (inactive)
